{
  "source": "patent US20200038413A1",
  "about": "“METHODS OF TREATING PARKINSON'S DISEASE USING AMINOSTEROL COMPOSITIONS” (Enterin, Inc., priority 2018, published 2020)",
  "key": {"[1]": {"tested_on": "myenteric intrinsic primary afferent neurons (IPANs)", "assay": "Whole-cell patch clamp, divided hemi-dissection preparation, FVB PD mice", "assay_type": "cell-based, mouse", "conditions": "for decrease in sAHP area under the curve / depolarisation of RMP / increase in number of APs at 2× threshold intensity / number of APs at 2× threshold intensity / AP threshold / sAHP area under the curve / RMP: FVB PD", "method": "Whole-cell Patch Clamp: Whole-cell patch clamp was performed on a hemi-dissected myenteric plexus preparation as previously described. […]\nMyenteric Primary Afferent Neuron Excitation: Squalamine excites myenteric primary afferent neurons. The effect of squalamine on the excitability of an isolated intestinal segment from the FVB PD mouse was explored using divided hemi-dissection preparations so that neurons are exposed for only half the area of an opened small intestinal segment. In this experiment, the inquiry was whether squalamine influenced the activity of the IPAN through direct interaction or indirectly, by stimulating release of epithelial mediators that influenced IPAN behaviour. Addition of squalamine (30 μM) to Krebs buffer in either the epithelial or the myenteric plexus compartments of the divided hemi-dissection preparation increased IPAN excitability (FIG. 12A-F). […] Addition of squalamine decreased the area under the curve of the sAHP by 77% from 86.8±88.2 to 20.3±25.3 mV.s, and depolarised RMP by 12% from −62±7 to −54±6 mV."}, "[2]": {"tested_on": "patients with PD and constipation", "assay": "Phase 2 trial: safety and adverse event profile", "assay_type": "in vivo, human", "protocol": "Each dose period was staggered, so that subjects 1-2 were administered a single dose of the drug at the lowest dose of 25 mg. Once 24 hours have elapsed, and provided there are no safety concerns, the patient was sent home and brought back on day 4-8 for the next dose. During the days the subjects are home, they completed the daily diaries and e-mailed them to the study coordinators. Subjects 3-10 were dosed after the first 2 subjects have been observed for 72 hours, i.e. on Day 4. Subjects 1-2 were also brought back on Day 4-8 and administered a single dose of 50 mg. Once another 24 hours have elapsed and provided there are no safety concerns, the patients were all sent home and instructed to return on Day 7 for the next dosing level. This single dosing regimen was continued until each subject was administered a single dose of 200 mg or has reached a dose limiting toxicity (DLT). DLT was the dose which induces repeated vomiting, diarrhea, abdominal pain or symptomatic postural hypotension within 24 hours of dosing.\nAdverse events were coded using the current version of MedDRA. Severity of AEs were assessed by investigators according to CTCAE (v4.03): Grade 1 is labeled as Mild, Grade 2 as Moderate, and Grade 3 and above as Severe. […] The number (percentage) of subjects who experienced an AE during escalation and fixed dosing periods were summarized by dose level and overall for each stage. The denominator for calculating the percentages were based on the number of subjects ever exposed to each dose and overall."}, "[3]": {"tested_on": "colon segments (propagating contractile clusters)", "assay": "Ex vivo colon motility (PCCs), Swiss Webster, C57BL/6 and CD-1 mice", "design": "species or system mouse", "conditions": "for increase in colonic PCC velocity / colonic PCC velocity: intraluminal 10-30 μM; for colonic PCC velocity: mean±SEM", "method": "Ex vivo colon motility: For the ex vivo colonic motility experiments, the colon was excised and placed within an organ-bath perfusion chamber filled with warmed, oxygenated Krebs buffer or physiological saline (35° C., 95% O2, 5% CO2). The colon was flushed and cannulated at the oral and anal ends to a manifold and syringe to allow inflow of oxygenated Krebs buffer (or physiological saline) or Krebs and squalamine and to maintain intraluminal pressure. The height of the inflow tube at baseline measurements was parallel to the height of the colon in the organ bath (1.1 cm). Mechanical threshold defined an inflow pressure great enough to generate a contraction in under 30 sec (1.8 cm). Recordings in the first portion of the study were measured at a mechanical threshold causing a pressure differential of 2 hPa (cm H2O). Inflow was raised 2-3 hPa above baseline and outflow was raised a minimum of 0.2 hPa above inflow. Motor patterns were recorded using a Microsoft LifeCam 3000 web camera or a Logitech Quickcam Pro camera positioned 7-8 cm above the tissue. Videos were recorded during a 20-minute Krebs control and a 20-minute Krebs +squalamine period in which solutions were added to the inflow syringe.\nSpatiotemporal Maps: Video recordings were used to construct spatiotemporal maps (STmaps) using edge detection software. STmaps are presented as heat maps showing the oral to anal direction across the y-axis and time across the x-axis (FIGS. 9A-C). Color corresponds to the changing diameter of the colon during periods of relaxation (green-yellow) and contraction (red) as contractile motor patterns occurred. ENS-dependent PCCs were defined as broad bands directed from the oral to anal ends that spanned more than 50% of the colon length. Parameters of motor patterns including, velocity, amplitude, and frequency were measured using ImageJ and Matlab (Version 12) software.\nStatistical Analysis: Effects of squalamine on motility and IPAN excitability in WT and PD model mice were assessed in paired experiments following Krebs control and subsequent squalamine exposure. Unpaired comparisons were performed for experiments comparing PD control and PD model strains. Percent difference was calculated by (treatment-control)/control. Data are presented as mean±SEM. Ex vivo statistical comparisons were performed using paired or unpaired, two-tailed t-tests or 1-way ANOVA using Graphpad Prism software (Version 7.0). In vivo studies were analysed using 1-way and 2-way ANOVA. Statistical significance was determined when p <0.05."}, "C. elegans model of PD": {"tested_on": "C. elegans model of PD", "conditions": "cited from earlier work"}, "[4]": {"tested_on": "colon segments (propagating contractile clusters)", "assay": "Ex vivo colon motility, A53T human α-synuclein overexpressing mice and WT littermates", "design": "species or system mouse"}, "[5]": {"conditions": "30 μM added to the myenteric plexus"}, "[6]": {"conditions": "C57BL/6 mice, vs Krebs control (P=0.27)"}},
  "data": [
    {"smiles": "CC(C)[C@@H](CC[C@@H](C)[C@H]1CC[C@H]2[C@@H]3[C@H](O)C[C@H]4C[C@@H](NCCCNCCCCN)CC[C@]4(C)[C@H]3CC[C@]12C)OS(=O)(=O)O", "note": "(single isomer, unassigned) [squalamine (ENT-01), squalamine]", "values": [
      {"measurement": "decrease in sAHP area under the curve", "setting": "[1]; 30 μM added to the epithelium", "value": 77, "unit": "%"},
      {"measurement": "depolarisation of RMP", "setting": "[1]; 30 μM added to the epithelium", "value": 12, "unit": "%"},
      {"measurement": "increase in number of APs at 2× threshold intensity", "setting": "[1]; 30 μM added to the epithelium", "value": 87, "unit": "%"},
      {"measurement": "decrease in AP threshold", "setting": "[1]; 30 μM added to the epithelium, FVB PD mouse (N=15)", "value": 44, "unit": "%"},
      {"measurement": "number of APs at 2× threshold intensity", "setting": "[1]; 30 μM added to the epithelium, before 1.6±0.6", "value": "3.1±0.7"},
      {"measurement": "AP threshold", "setting": "[1]; 30 μM added to the epithelium, before 63.7±50.4", "value": "35.7±22.3", "unit": "pA"},
      {"measurement": "sAHP area under the curve", "setting": "[1]; 30 μM added to the epithelium, before 86.8±88.2", "value": "20.3±25.3", "unit": "mV.s"},
      {"measurement": "RMP", "setting": "[1]; 30 μM added to the epithelium, before −62±7", "value": "−54±6", "unit": "mV"},
      {"measurement": "decrease in sAHP area under the curve", "setting": "[1]; [5]", "value": 87, "unit": "%"},
      {"measurement": "depolarisation of RMP", "setting": "[1]; [5]", "value": 13, "unit": "%"},
      {"measurement": "increase in number of APs at 2× threshold intensity", "setting": "[1]; [5]", "value": 214, "unit": "%"},
      {"measurement": "decrease in AP threshold", "setting": "[1]; 30 μM added to the myenteric plexus, FVB PD mouse (N=5)", "value": 37, "unit": "%"},
      {"measurement": "number of APs at 2× threshold intensity", "setting": "[1]; 30 μM added to the myenteric plexus, before 1.4±0.5", "value": "4.4±2.8"},
      {"measurement": "AP threshold", "setting": "[1]; 30 μM added to the myenteric plexus, before 46.0±31.3", "value": "29.0±10.1", "unit": "pA"},
      {"measurement": "RMP", "setting": "[1]; 30 μM added to the myenteric plexus, before −63±4", "value": "−55±6", "unit": "mV"},
      {"measurement": "sAHP area under the curve", "setting": "[1]; 30 μM added to the myenteric plexus, before −71.9±60.1", "value": "-9.6±15.1", "unit": "mV.s"},
      {"measurement": "Diarrhea, patients", "setting": "[2]; Stage 1, 4/10", "value": 40, "unit": "%"},
      {"measurement": "nausea, patients", "setting": "[2]; Stage 1, 4/10", "value": 40, "unit": "%"},
      {"measurement": "Diarrhea, patients", "setting": "[2]; Stage 2, 15/34", "value": 44, "unit": "%"},
      {"measurement": "nausea, patients", "setting": "[2]; Stage 2, 18/34", "value": 52.9, "unit": "%"},
      {"measurement": "worsening of hemorrhoids, patients", "setting": "[2]; both stages, 1/44", "value": 2.2, "unit": "%"},
      {"measurement": "worsening of acid reflux, patients", "setting": "[2]; both stages, 2/44", "value": 4.5, "unit": "%"},
      {"measurement": "flatulence, patients", "setting": "[2]; both stages, 3/44", "value": 6.8, "unit": "%"},
      {"measurement": "vomiting, patients", "setting": "[2]; both stages, 3/44", "value": 6.8, "unit": "%"},
      {"measurement": "dizziness, patients", "setting": "[2]; both stages, 8/44", "value": 18, "unit": "%"},
      {"measurement": "abdominal pain, patients", "setting": "[2]; both stages, 11/44", "value": 32, "unit": "%"},
      {"measurement": "increase in colonic PCC velocity", "setting": "[3]; C57BL/6 mice, vs Krebs control", "value": 38, "unit": "%"},
      {"measurement": "colonic PCC velocity", "setting": "[3]; C57BL/6 mice, Krebs control 1.31±0.10", "value": "1.80±0.20", "unit": "mm/s"},
      {"measurement": "increase in PCC amplitude", "setting": "[3]; [6]", "value": 1, "unit": "%"},
      {"measurement": "increase in PCC frequency", "setting": "[3]; [6]", "value": 51, "unit": "%"},
      {"measurement": "PCC frequency", "setting": "[3]; C57BL/6 mice, Krebs control 0.007±0.001", "value": "0.010 ±0.003", "unit": "Hz"},
      {"measurement": "PCC amplitude", "setting": "[3]; C57BL/6 mice, Krebs control 0.66±0.06", "value": "0.70±0.07", "unit": "cm"},
      {"measurement": "increase in colonic PCC velocity", "setting": "[3]; CD-1 mice, vs Krebs control", "value": 81, "unit": "%"},
      {"measurement": "colonic PCC velocity", "setting": "[3]; CD-1 mice, Krebs control 0.96±0.1", "value": "1.74±0.1", "unit": "mm/s"},
      {"measurement": "increase in PCC frequency", "setting": "[3]; CD-1 mice, vs Krebs control (P=0.06)", "value": 63, "unit": "%"},
      {"measurement": "increase in PCC amplitude", "setting": "[3]; CD-1 mice, vs Krebs control (P=0.56)", "value": 12, "unit": "%"},
      {"measurement": "PCC frequency", "setting": "[3]; CD-1 mice, Krebs control 0.0099±0.0014", "value": "0.0162±0.0026", "unit": "Hz"},
      {"measurement": "PCC amplitude", "setting": "[3]; CD-1 mice, Krebs control 0.64±0.19", "value": "0.71±0.19", "unit": "cm"},
      {"measurement": "increase in colonic PCC velocity", "setting": "[3]; Swiss Webster mice, 20 min, vs Krebs control", "value": 45, "unit": "%"},
      {"measurement": "colonic PCC velocity", "setting": "[3]; Swiss Webster mice, Krebs control 1.14±0.10", "value": "1.66±0.10", "unit": "mm/s"},
      {"measurement": "increase in PCC frequency", "setting": "[3]; Swiss Webster mice, vs Krebs control", "value": 35, "unit": "%"},
      {"measurement": "decrease in PCC amplitude", "setting": "[3]; Swiss Webster mice, vs Krebs control (P=0.65)", "value": 3, "unit": "%"},
      {"measurement": "PCC frequency", "setting": "[3]; Swiss Webster mice, Krebs control 0.009±0.001", "value": "0.012±0.001", "unit": "Hz"},
      {"measurement": "PCC amplitude", "setting": "[3]; Swiss Webster mice, Krebs control 0.62±0.05", "value": "0.61±0.05", "unit": "cm"},
      {"measurement": "muscle paralysis", "setting": "C. elegans model of PD; C. elegans model of PD (Perni et al. 2017)", "value": "complete reversal of muscle paralysis"},
      {"measurement": "formation of aggregates of αS", "setting": "C. elegans model of PD; C. elegans model of PD in vivo (Perni et al. 2017)", "value": "inhibit the formation of aggregates of αS"},
      {"measurement": "PCC velocity", "setting": "[4]; A53T mice, baseline state, intraluminal 30 μM, without drug 1.2±0.2", "value": "2.3±0.4", "unit": "mm/s"},
      {"measurement": "PCC velocity", "setting": "[4]; A53T mice, colonic expansion (mechanical threshold), 30 μM, without drug 1.6±0.3", "value": "2.1±0.3", "unit": "mm/s"},
      {"measurement": "PCC velocity", "setting": "[4]; WT mice, baseline state, intraluminal 30 μM, without drug 1.7±0.3", "value": "2.8±0.4", "unit": "mm/s"},
      {"measurement": "PCC velocity", "setting": "[4]; WT mice, colonic expansion (mechanical threshold), 30 μM, without drug 3.0±0.7", "value": "2.4±0.3", "unit": "mm/s"}
    ]}
  ]
}
